Marks after values point to notes of the source that are not given here.
Experiments:
visceral fat adipocytes = experiment: Histological analysis of white adipocyte size in visceral fat (toluidine blue O); format: in vivo, mouse
Experimental: Fluorescent microscopy. Adipose tissue was harvested and fixed in 4% paraformaldehyde (SigmaP6148). Adipocyte size was measured by staining for toluidine blue O in 5-20 μm-thick sections, paraffin embedded (Cell Signalling Technology, Tissue-Tek O.C.T.). adipocyte differentiations assessed by Oil Red 0 staining.

[1] = Serum biomarkers in treated mice; format: in vivo, C57BL/6 mice; conditions: 100 mg/Kg per day
Excerpt: The C57BL/6 mice were maintained on a standard purified mouse diet (PicoLab 5053 Rodent Diet 20; Lab Diets) until they reached 2 months of age when the treatments started. The CR animals were subjected to a lifelong restriction on PicoLab 5053 Rodent Diet 20; Lab Diets, starting at 12 weeks of age, with a daily food allotment of 60% of that eaten by the ad lib animals. Besides CR animals, the C57BL/6 groups in this study were fed the standard high fat diet (HFD; 60 or 40% fat). Body weights were measured weekly at the same time each week. Food and water intake were measured once every month for 3-6 consecutive days at the same time each month. Water consumption was measured for 2 weeks prior to the start of administration. Compound was generated and modified for better permeability in to mitochondria, evaluated by HPLC, was 96%-97%. The administration began at 8 weeks of age and continued for 16 months, until they became 18-month-old. The drug solution was prepared weekly in small batches by dissolving the compound into autoclaved water at the respective doses and filtering sterilely. Aliquots were collected from each batch and measured by HPLC to confirm stability of the compound. Water bottles and cages were changed twice weekly. Fed and fasted blood samples were collected monthly at the same time each month from tail and used for glucose, insulin, blood cell counts, lipid analysis using assay kits (Robio, China) and HbA1C assay kit (Crystal chem, USA) following the manufacturer protocol. IPGTTs and ITTs were conducted throughout morning and early afternoon after fasting for 16-18 hrs. and 4 hrs., respectively, once before start of treatment administration began and every 3 months thereafter. Rectal body temperature was measured monthly, as described previously. Whole blood samples, and histopathology were analyzed after 14 months of treatment. Tissue samples were collected after 10-14 months from mice, sacrificed and used for WB and qPCR microarray, and other analyses. All animal studies were approved by the Shanghai Jiao Tong University Animal Studies Committee and were in accordance with NIH guidelines. (Number of mice; SD=30, HFD=10, CR=20).

[2] = Chronic 10-week treatment of T2DM mice; format: in vivo
Experimental: Next, in a biased investigation on impact of partial inhibition as a potential anti-diabetic treatment, two groups of type 2 diabetes mellitus (T2DM) and healthy control mice were prepared. Four weeks after the verification of T2DM, diabetic mice began to receive the exemplary subject compound. The chronic treatment phase lasted for 10 weeks.

AMPK, FOXO1, SIRT3 = experiment: qPCR and immunoblotting of hepatic glucose metabolism and longevity markers; format: in vivo, mouse
Experimental: Immunoblotting analyses. Western blot analyses carried out in mouse livers, heart and adipose tissues collected from aged mice after treatments. Proteins (40 μg) were separated by electrophoresis on a sodium dodecyl sulfate (SDS) 4-20% polyacrylamide gel under reducing conditions. Membranes (Amersham Hybond PVDF, Germany) were probed overnight at 4° C. using Total OX-OPHOS Rodent cocktail (ab110413, USA), Complex IV, AMPK γ1, PGC-1α and Pparγ, FOXO1, TNF-α, IL-6 (USA, abCAM) and then incubated with polyclonal Goat anti-mouse IgG H&R (1:2000, ab6789, USA) in blocking buffer for 2 h at room temperature. To assure equal loading and/or to normalize protein content, the membrane blots were incubated with mouse anti-β-actin monoclonal antibody (mAbcam8227). Proteins were visualized using a chemiluminescence ECL Western blotting detection reagent (Bio-rad, USA). Quantification of protein was performed by chemiluminescence blot scanning (Quantity One™ version 4.6.3. Bio Rad).
(§1) Gene expression & RT qPCR Analyses. Total RNA was isolated using a commercially available kit (OMEGA bio-tek, R6812-02) according to the manufacturer's instructions. cDNA was generated using the PrimeScript RT reagent kit (TAKARA, RR047A). Gene expression were determined by qPCR as described in the product manual. The analysis was evaluated by Bio-Rad Real-Time System (CFX Connect™).
(§2) RNAs from 10 mice (5 treated and 5 Ctrl.) VF fat or livers were isolated by using omega Bio-Tek reagents, and cDNA was transcribed by (TAKARA). qPCR was then performed by using iQ SYBR Green mastermix bioscience on a CFX96 Real-Time System/C1000 Thermal Cycler (Bio-Rad).

[3] = tested on: UCP1, UCP2, CIDEA, Cox8b transcripts; experiment: qPCR of thermoregulatory factors and beiging inducers; format: in vivo, mouse; conditions: brown fat, after 14 months of treatment
Experimental: as §1, §2

[4] = tested on: TNF-α, IL-6, CRP, leptin receptor, CD68 transcripts; experiment: qPCR of inflammatory factors, macrophage pan marker and leptin receptor; format: in vivo, mouse
Experimental: as §1, §2

[5] = DEXA body composition analysis and fat depot analysis; format: in vivo; conditions: 14 month old mice
[6] = tested on: PGC-1α, NRF1, SIRT1, Atg5, PINK1, Parkin transcripts; experiment: qPCR of mitochondriogenesis transcripts and mitophagy markers; format: in vivo, mouse
Experimental: as §1, §2

[7] = liver, 14 months treatment (FIG. 6A)
[8] = visceral fat, 14 months old mice
[9] = liver, 12- and 16-month chronic treatment

Cc1ncsc1CCOC(=O)C[P+](c1ccccc1)(c1ccccc1)c1ccccc1.[Br-] [HG1a-1, (2-(2-(4-Methylthiazol-5-yl)Ethoxy)-2-Oxoethyl) Triphenylphosphonium Bromide]
visceral fat adipocyte size and cell perimeter (visceral fat adipocytes; 5 month old treated mice): minor changes | adipocyte shrinkage in size and perimeter compared to control (visceral fat adipocytes; 12 month old treated mice): 3 fold | glycated hemoglobin (Hb1Ac) levels vs control and calorie restriction ([1]; 12 months continuous treatment): lower | Cholesterol ([1]; serum, treated mice): 6.3 ± 0.9 mM/L | Glucose-fasted ([1]; serum, treated mice): 4.4 ± 0.2 mM | Glucose-fed ([1]; serum, treated mice): 6.5 ± 0.3 mM | Insulin ([1]; serum, treated mice): 2.34 ± 0.5 µg/L | Total protein ([1]; serum, treated mice): 5.89 ± 0.32 g dl^□−1 | Triglycerides ([1]; serum, treated mice): 1.00 ± 1*^ mM/L | % HbA1c ([1]; treated mice): 5.5 ± 0.5 % | drop of blood glucose level ([2]; after one week (23 mM at time 0)): 20% | drop of blood glucose level ([2]; by week 3, reached healthy controls): 39% | insulin elevations ([2]; week 3): negligible | APMK amplified (AMPK, FOXO1, SIRT3; [7]): 5 fold | FOXO1 amplified (AMPK, FOXO1, SIRT3; [7]): 3 fold | SIRT3 amplified (AMPK, FOXO1, SIRT3; [7]): one-fold | enhanced deacetylation of FoxO-1 (AMPK, FOXO1, SIRT3; livers of treated mice): 3 fold | relative levels of phosphorylated AMPK increased (AMPK, FOXO1, SIRT3; livers of treated mice): 5 fold | SIRT-3 level (AMPK, FOXO1, SIRT3; treated group (FIG. 6A)): marked upgrade | CIDEA expression amplified [3]: one-fold | Cox8b expression amplified [3]: 7 fold | UCP2 expression amplified [3]: > one-fold | UPC1 expression increase [3]: 20 fold | leptin receptor transcript abundance increase ([4]; mouse livers): 2 fold | decline in abundance of CD68 ([4]; visceral fat): 5 fold | CRP transcript [4, 8]: trivial changes | IL-6 transcript [4, 8]: declined markedly | TNF-α transcript [4, 8]: declined markedly | gonadal adipose mass [5]: valid reduction | sub-scapular brown adipose mass [5]: minor effect | body fat mass ([5]; DEXA): recognizable decrease | lean mass ([5]; DEXA): trivial changes | Atg5 transcript level ([6]; adipose tissue): enhancement | Atg5 transcript level [6, 9]: noticeable upgrade | PINK1 transcript level [6, 9]: noticeable upgrade | Parkin transcript level [6, 9]: noticeable upgrade | SIRT1 transcript level ([6]; liver, longer course of treatment): significant enhancement | NRF1 transcript level ([6]; livers of aged mice): increased notably | PGC-1α transcript level ([6]; livers of aged mice): increased notably

— patent US20220281902A1, “MIT[…] IMPROVE METABOLIC SYNDROME DURING AGING” (The Board of Trustees of the Leland Stanford Junior …, priority 2019, published 2022)
